The source of these data is patent US20220054494A1, “METHODS FOR TREATING BLADDER AND URETHRA DYSFUNCTION AND DISEASE” (University of Pittsburgh - Of the Commonwealth System of …, priority 2019, published 2022).

Test [1] concerns urethral smooth muscle and external urethral sphincter (striated muscle). As to the kind of experiment: Transmission electron microscopy of urethral smooth muscle and external urethral sphincter. It counts as in vivo, rat. The note with it: aged rats; oral 8-AG 5 mg/kg/day, 6 weeks. From the text: Damage to the muscles or lack of hormonal stimulation are major contributing factors to urinary incontinence, which can lead to impaired bladder, emptying, urgency, and incontinence. The methods and materials used (such as for western immunoblotting and transmission electron microscopy) are the same as Example 1 with the tissues utilized for examination of muscle and mitochondrial morphology being the proximal urethral sphincter muscle and striated muscle of the external sphincter.
Transmission electron microscopy (TEM): The other half of each urinary bladder, proximal urethra, or external urethral sphincter from each group (young, aged, aged+8-AG treatment) was fixed in cold 2.5% glutaraldehyde in 0.01 M PBS. The specimens were rinsed in PBS, post-fixed in 1% osmium tetroxide with 1% potassium ferricyanide, rinsed in PBS, dehydrated through a graded series of ethanol and propylene oxide solutions, and embedded in POLY/BED® 812 (Luft formulations). Semi-thin (300 nm) sections were cut on a LEICA® Reichart Ultracut, stained with 0.5% Toluidine Blue in 1% sodium borate and examined under the light microscope. Ultrathin sections (65 nm) were stained with uranyl acetate as well as Reynold's lead citrate and examined on a JEOL 1400 transmission electron microscope with a side mount AMT 2k digital camera (Advanced Microscopy Techniques, Danvers, Mass.).

For another test, the system named is bladder vasculature. Kind of test: Ribbon-scanning confocal microscopy of bladder vasculature perfused with fluorescent beads. It counts as in vivo, rat. Conditions: aged rats. The text has this:
Bladders that had been perfused transcardially with PBS and containing 20 nm yellow-green fluorescent beads (THERMO FISHER™, F8787) to highlight the vasculature were fixed then cleared rapidly by removing lipids and dissolving light-absorbing chromophores within the tissue. Clearing the tissue increased the maximum depth of confocal imaging to many millimeters. At this stage, tissue was directly imaged for the presence of genetically expressed reporter proteins or underwent staining using immunohistochemistry (IHC) or molecular dyes. Using this method, images were acquired through bladders (and other tissues) that are 5000 micrometers thick. Volumetric data are acquired using the Caliber ID RS-G4 ribbon scanning confocal microscope, which acquired large-area images 20-40 times faster than other commercially available systems with a high nA (1.0) long working distance (8 mm) low magnification (20×) by NIKON™ Inc (Tokyo, Japan). Quantitative changes in vascular structures were compared with the volume and surface area of each bladder and of the various tissue subtypes using these methods (UT; suburothelium; mesenchyme). These methods afforded the advantage of interrogating whole tissues in a three-dimensional environment and in combination with IHC without the need to section.
Vascular Changes: Bladders that had been perfused transcardially with PBS buffer containing 20 nm yellow-green fluorescent beads (THERMO FISHER®, F8787) to highlight the vasculature were fixed then cleared by removing lipids and dissolving light-absorbing chromophores within the tissue. Volumetric data were acquired using a Caliber ID RS-G4 ribbon scanning confocal microscope (NIKON® Inc, Tokyo, Japan), which can acquire large-area images (uses a high nA (1.0) long working distance (8 mm) with low magnification (20×)). This affords the advantage of interrogating whole tissues in a three-dimensional environment without the need to section. Real-time blood perfusion (1 mm3 tissue) was accomplished using a BLF22D laser Doppler flowmeter (Transonic Systems, Inc) with a surface probe (TypeS-APLPHS) applied to the serosal surface of the bladder (apex and neck) wall using Doppler light shift from moving RBCs to analyze flow by the Bonner algorithm. This method gives robust, non-invasive microvascular flow signals in the bladder wall of anesthetized rats.

The next test has as its target Rac 1 (Homo sapiens, UniProt P63000). Conditions: Jackson et al., J Am Heart Assoc 2018; cited from earlier work.
In test [2] the test system is dynamin-related protein (DRP-1). Kind of test: Western immunoblotting, DRP-1. It is filed as in vivo, rat. The note with it: aged rats; oral 8-AG 5 mg/kg/day, 6 weeks. As to the method:
Western immunoblotting: One half of each bladder preparation was homogenized using Lysing Matrix D in a FastPrep 24 instrument (MP Biomedicals, Solon, Ohio) in HBSS (5 mM KCl, 0.3 mM KH2PO4, 138 mM NaCl, 4 mM NaHO3, 0.3 mM Na2HCO3, 0.3 mM Na2HPO4, 5.6 mM glucose and 10 mM Hepes, pH 7.4) containing complete protease inhibitor cocktail (1 tablet/10 ml, ROCHE®, Indianapolis, Ind.)) and phosphatase inhibitor cocktail (SIGMA®, 1:100). After centrifugation (13000 rpm; 15 min at 4° C.), the membrane protein fraction was prepared by suspending the membrane pellets in lysis buffer containing 0.3 M NaCl, 50 mM Tris-HCl (pH 7.6) and 0.5% Triton X-100 and the same concentration of protease inhibitors as above. The suspensions were incubated on ice and centrifuged (13000 rpm; 15 min at 4° C.). The protein concentrations of the combined supernatants were determined using the PIERCE® BCA protein assay (THERMO SCIENTIFIC®, Rockford, Ill.). […] As a loading control, total protein per sample was determined using Bio-Rad® Stain Free SDS-PAGE gel technology. UV-activated protein fluorescence was imaged on a CHEMIDOC® MP (BIO-RAD®). […] The volume (intensity) of each protein species was determined and normalized to total protein using Image Lab software (BIO-RAD®).
On the technique in general: In western blotting, separated proteins are transferred to a membrane and probed.

The mark [3] stands for this setting: chronic 8-AG treatment (Examples 1-2).

Entries after “also recorded” stand apart in the source; their conditions may differ.

`Nc1nc2[nH]c(N)nc2c(=O)[nH]1` [8-AG, 8-Aminoguanine]: in test [1], the “external urethral sphincter (striated muscle) and mitochondrial morphology” value was “restored to a younger state; also recorded: reversed to a younger state”; the “urethral smooth muscle and mitochondrial morphology” value is on record as “restored to a younger state; also recorded: reversed to a younger state”. Moreover, in the test on bladder vasculature (setting [3]), the “ischemic appearance of bladder tissue” value is on record as “no longer appeared ischemic” and the “tortuosity of bladder vessels” value was “restored to a younger state; also recorded: reduced the number of tortuous vessels”. Besides, in the test with bladder vasculature (oral 8-AG 5 mg/kg/day, 6 weeks), the “ischemic appearance of bladder tissue” value is on record as “no longer appeared ischemic” and the “vascular tortuosity / tortuous vessels in bladder” value is “reduced the number of tortuous vessels; also recorded: restored to a younger state”. Also, at Rac 1, the “Rac 1 inhibition (mechanism of reduced potassium excretion)” value is “inhibiting”. Further, the “DRP-1 in bladder mucosa” value in test [2] is recorded as “reversed or restored to levels similar to the younger state; also recorded: restored changes similar to a younger state”.
